Data on one compound can be found in PMC11984586, “A novel spider toxin as a selective antagonist of the Kv1 subfamily of voltage-gated potassium channels through gating modulation” (The Journal of Biological Chemistry, 2025).

Like-named read-outs stand apart in the source and are kept apart here. Bridge positions count the residues as written; N and C are the ends. Peptide text beside a SMILES is read from it.

Assay [1] deals with T1, Kv1.7/I386C mutant (Kv1.7∗) (Homo sapiens, UniProt Q96RP8, I386C).
T1 construct: expressed in transfected cells; host or cells: HEK293T
As to the kind of experiment: Gating-current recording, Kv1.7* in HEK293T cells. The class given is cell-based. The settings on record: for inhibition at 10 µM: HEK-293T. The method, then: (§1) The cDNA of hKv1.1, hKv1.2, hKv1.3, rKv1.4, hKv1.5, mKv1.6, and hKv1.7 were subcloned into mammalian expression vectors pcDNA3.1 or pCMV-blank vectors, as well as other plasmids described previously ([35]). Channel mutants were generated by site-directed mutations. Briefly, the parental channel plasmid was amplified using a pair of oppositely directed primers harboring the designed mutation site, with KOD Fx (TOYOBO Co, Ltd). The resulting PCR mix was treated with FastDigest DpnI (Thermo Fisher Scientific) to remove the methylated template. Ten microliters of the digested product was then used to transform 100 μl E. coli DH5α competent cells. Transformants were randomly picked and sequenced to confirm the presence of the intended mutation.
CHO-K1 cells were selected for expressing Kv channels due to their lack of endogenous Kv channels, while HEK293 or ND7/23 cells were used for Nav and Cav channel expression. CHO-K1 cells were cultured in a Dulbecco's modified Eagle's medium/Ham's F-12 nutrient mixture (DMEM-F12) medium, and HEK293T and ND7/23 cells in DMEM medium, all supplemented with 10% fetal bovine serum and 1% penicillin-streptomycin (all from Gibco, Thermo Fisher Scientific, Inc) under standard conditions (37 °C, 5% CO2, and saturated humidity). These cell lines were purchased from Stem Cell Bank, Chinese Academy of Sciences. Channel plasmids were cotransfected with pEGFP-N1 (encoding GFP) into the respective cells using lipofectamine 2000, following the manufacturer's instructions (Invitrogen, Thermo Fisher Scientific, Inc.). Nav1.9-GFP plasmid was transfected into ND7/23 using the X-tremeGENE HP DNA Transfection Reagent (Roche). After 4 to 6 h transfection, cells were seeded onto poly-lysine–coated coverslips, and 24 to 36 h later, transfected cells were ready for patch-clamp analysis.
Patch clamp experiments were conducted using an electrophysiology platform comprising a MultiClamp 700B amplifier and an Axon Digidata 1550 AD/DA convertor (Axon Instruments). Data acquisition was performed with pClamp 10.5 software (Axon Instruments). All experiments were performed at room temperature.
Gating currents were recorded by transfecting HEK293T cells with a saturating dose of plasmid to ensure maximal channel expression. The Kv1.3/I472C and Kv1.7/I386C mutants were used to record the IgOFF, minimizing slow voltage sensor return as reported in previous studies ([28]). The bath solution contained (in mM) the following: 140 NMDG, 50 Hepes, 2 CaCl2, 2 MgCl2, 0.1 EDTA, and 0.01 CsCl (pH 7.3, adjusted with methanesulfonic acid), and the pipette solution contained (in mM) the following: 140 NMDG, 1 NMDG-Cl, 50 HF, 5 EGTA, and 50 Hepes (pH 7.3, adjusted with methanesulfonic acid). Gating charge movement (Q) was determined by integrating the area under the IgON and IgOFF traces, representing voltage sensor movement in response to depolarizing pulses. The data were normalized and plotted against voltage to generate Q-V curves, which were fitted using a Boltzmann function to estimate the voltage dependence of charge movement.

For assay [2], the target named is T2, mKv1.6 (Mus musculus, UniProt Q61923).
T2 construct: expressed in transfected cells; host or cells: CHO-K1
As to the kind of experiment: Whole-cell patch clamp, Kv1.6 ionic current in CHO-K1 cells. The class given is cell-based. The following applies: +30 mV, 500 ms, holding −80 mV, mean ± SD, n = 4–7, read-out: IC50, inhibition of Kv1.6 current (full inhibition). The method, then:
as §1, with “Transformants were randomly picked and sequenced to confirm the presence of the intended mutation.” left out
CHO-K1 cells were selected for expressing Kv channels due to their lack of endogenous Kv channels, while HEK293 or ND7/23 cells were used for Nav and Cav channel expression. […] After 4 to 6 h transfection, cells were seeded onto poly-lysine–coated coverslips, and 24 to 36 h later, transfected cells were ready for patch-clamp analysis. […]
For Kv current recordings, the bath solution contained (in mM) the following: 140 NaCl, 5 KCl, 1 MgCl2, 2 CaCl2, 10 glucose, and 10 Hepes (pH 7.3, adjusted with NaOH), and the pipette solution contained (in mM) the following: 140 KCl, 2.5 MgCl2, 11 EGTA, and 10 Hepes (pH 7.3, adjusted with KOH). […] The steady-state fast inactivation of Kv1.3 was measured using a two-pulses protocol. […]

T1 sequence (Q96RP8 whole entry I386C): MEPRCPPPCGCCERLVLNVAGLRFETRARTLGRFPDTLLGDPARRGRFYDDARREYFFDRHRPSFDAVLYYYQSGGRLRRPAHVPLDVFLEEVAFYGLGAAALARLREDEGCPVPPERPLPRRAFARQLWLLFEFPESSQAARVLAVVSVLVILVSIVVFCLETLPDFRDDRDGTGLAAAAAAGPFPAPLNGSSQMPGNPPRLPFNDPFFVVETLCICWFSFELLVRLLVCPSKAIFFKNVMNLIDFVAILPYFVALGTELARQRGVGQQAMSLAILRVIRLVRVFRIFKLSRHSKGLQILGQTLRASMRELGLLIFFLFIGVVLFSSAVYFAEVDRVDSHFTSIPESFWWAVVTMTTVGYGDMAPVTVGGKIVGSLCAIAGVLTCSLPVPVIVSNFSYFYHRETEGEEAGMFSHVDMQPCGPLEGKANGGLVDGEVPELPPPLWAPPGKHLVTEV
T2 sequence (Q61923 whole entry): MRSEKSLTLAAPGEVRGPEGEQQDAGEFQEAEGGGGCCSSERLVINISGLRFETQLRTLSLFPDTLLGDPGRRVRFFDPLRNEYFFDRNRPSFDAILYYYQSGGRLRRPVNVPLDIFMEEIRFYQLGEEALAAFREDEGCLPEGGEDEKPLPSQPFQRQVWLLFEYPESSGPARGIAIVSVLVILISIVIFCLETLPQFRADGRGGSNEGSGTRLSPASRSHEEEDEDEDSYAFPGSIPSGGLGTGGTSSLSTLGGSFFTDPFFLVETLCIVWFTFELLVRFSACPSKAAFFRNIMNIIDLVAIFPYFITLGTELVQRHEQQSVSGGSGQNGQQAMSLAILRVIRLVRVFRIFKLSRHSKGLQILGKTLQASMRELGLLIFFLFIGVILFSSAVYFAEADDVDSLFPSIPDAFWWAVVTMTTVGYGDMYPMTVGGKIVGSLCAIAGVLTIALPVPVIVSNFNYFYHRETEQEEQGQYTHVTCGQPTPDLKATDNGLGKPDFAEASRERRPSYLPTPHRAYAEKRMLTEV

In general, IC50 refers to the point on the concentration scale where inhibition reaches its midpoint. The term inhibition denotes the percentage by which the read-out fell short of the control. Take `CC[C@H](C)[C@@H]1NC(=O)[C@H](Cc2ccc(O)cc2)NC(=O)[C@H](CCC(N)=O)NC(=O)[C@@H]2CCCN2C(=O)[C@@H]2CSSC[C@H](NC(=O)[C@H](C)NC(=O)[C@H](CO)NC(=O)[C@H](CCC(=O)O)NC(=O)[C@H](CCC(=O)O)NC(=O)[C@@H](N)[C@@H](C)O)C(=O)NCC(=O)NCC(=O)N[C@@H](Cc3ccccc3)C(=O)N[C@@H](CC(N)=O)C(=O)N[C@@H](C)C(=O)N[C@@H](CCCNC(=N)N)C(=O)N[C@H]3CSSC[C@H](NC1=O)C(=O)N[C@@H](CCCCN)C(=O)NCC(=O)N[C@@H](Cc1c[nH]c4ccccc14)C(=O)N[C@@H](CCCNC(=N)N)C(=O)N[C@@H]([C@@H](C)O)C(=O)N[C@@H](CCCCN)C(=O)N[C@@H](CCCNC(=N)N)C(=O)N[C@H](C(=O)N[C@@H](CC(C)C)C(=O)N[C@@H](CC(N)=O)C(=O)N1CCC[C@H]1C(=O)O)CSSC[C@H](NC(=O)[C@H](CCCCN)NC(=O)[C@H](Cc1c[nH]cn1)NC(=O)[C@H](CC(C)C)NC(=O)[C@@H]1CCCN1C3=O)C(=O)N2` [MrVIII] (H-TEESACGGFNARCPLHKCCPQYICKGWRTKRCLNP-OH; disulfide 6-19, 13-24, 18-32; N-terminus and C-terminus assumed): in assay [1] (500 nM MrVIII, before toxin −6.4 ± 2.9 mV, mean ± SD, n = 5, SD), the “Va of Q-V curve of Kv1.7∗ after toxin” value is −4.3 ± 3.8 mV. Further, in assay [1] (10 μM MrVIII, 500 ms depolarization), the “effect on IgON of Kv1.7∗” value was “completely inhibited”. The IC50 in assay [1] (+30 mV for 50 ms, held at −100 mV, HEK293T, mean ± SD, n = 11, SD, read-out: IC50, inhibition of IgON current of Kv1.7∗) came out at 214 ± 91.8 nM; in assay [2], 13.4 ± 6.7 nM. For the same compound, the inhibition at 10 µM in assay [1] (10 μM MrVIII, 50 ms depolarization at +30 mV, mean ± SD, n = 11, SD, read-out: inhibition of IgOFF of Kv1.7∗) was about 74.1%; in assay [1] (10 μM MrVIII, 500 ms depolarization, mean ± SD, n = 5, SD, read-out: inhibition rate of IgOFF of Kv1.7∗) it was 13.1 ± 5.5%.
